Consider 15 compounds from patent publication US10123993B2, “Cyclic ureas as inhibitors of rock” (BRISTOL-MYERS SQUIBB COMPANY, priority 2015, dated 2018).

As a reminder, the IC50 is the point on the concentration scale where inhibition reaches its midpoint. Low readings indicate higher potency, high ones lower potency.

Counter-ions that a name gives are not always drawn.

Sequence of ROCK2 (O75116 whole entry, species assumed): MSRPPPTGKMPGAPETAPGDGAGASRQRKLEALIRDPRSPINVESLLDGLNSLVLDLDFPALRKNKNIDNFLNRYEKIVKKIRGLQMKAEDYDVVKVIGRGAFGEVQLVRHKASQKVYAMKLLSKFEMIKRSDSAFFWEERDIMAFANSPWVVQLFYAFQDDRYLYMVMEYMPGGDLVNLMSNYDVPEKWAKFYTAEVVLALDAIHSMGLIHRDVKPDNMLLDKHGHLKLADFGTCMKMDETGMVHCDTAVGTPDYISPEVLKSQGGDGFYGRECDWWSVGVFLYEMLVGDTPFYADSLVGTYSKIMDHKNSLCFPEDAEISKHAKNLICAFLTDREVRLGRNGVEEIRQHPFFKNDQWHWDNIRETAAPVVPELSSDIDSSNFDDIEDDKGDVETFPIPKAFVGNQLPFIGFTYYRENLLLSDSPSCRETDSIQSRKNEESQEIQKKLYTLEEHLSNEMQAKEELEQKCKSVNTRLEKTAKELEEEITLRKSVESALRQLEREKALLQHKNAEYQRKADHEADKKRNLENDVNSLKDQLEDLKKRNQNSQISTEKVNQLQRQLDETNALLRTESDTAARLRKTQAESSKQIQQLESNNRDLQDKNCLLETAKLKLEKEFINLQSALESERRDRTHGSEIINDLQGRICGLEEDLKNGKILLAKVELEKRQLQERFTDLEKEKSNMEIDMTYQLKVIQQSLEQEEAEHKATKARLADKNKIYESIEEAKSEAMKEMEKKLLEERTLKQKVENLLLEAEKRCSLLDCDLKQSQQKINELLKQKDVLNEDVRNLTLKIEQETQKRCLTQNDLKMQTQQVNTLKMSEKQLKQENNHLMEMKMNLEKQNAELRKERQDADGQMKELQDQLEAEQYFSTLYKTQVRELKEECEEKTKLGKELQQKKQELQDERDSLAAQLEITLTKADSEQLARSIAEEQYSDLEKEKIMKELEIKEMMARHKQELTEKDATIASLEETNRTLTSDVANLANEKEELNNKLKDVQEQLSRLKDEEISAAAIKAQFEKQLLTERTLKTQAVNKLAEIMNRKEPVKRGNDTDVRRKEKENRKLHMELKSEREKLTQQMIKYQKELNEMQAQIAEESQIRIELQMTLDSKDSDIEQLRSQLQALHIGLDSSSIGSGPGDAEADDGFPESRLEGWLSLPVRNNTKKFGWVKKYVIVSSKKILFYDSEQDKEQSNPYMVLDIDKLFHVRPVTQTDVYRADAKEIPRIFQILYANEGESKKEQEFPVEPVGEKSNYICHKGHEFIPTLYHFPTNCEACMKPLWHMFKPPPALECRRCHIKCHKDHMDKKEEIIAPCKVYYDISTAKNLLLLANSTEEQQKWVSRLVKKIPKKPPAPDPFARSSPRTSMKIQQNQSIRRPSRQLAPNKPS

In the test the target is ROCK2 (Homo sapiens, UniProt O75116). As to the kind of experiment: ROCK2 kinase inhibition assay (Caliper LABCHIP, FITC peptide substrate). Format: biochemical. As to conditions: 5 μM ATP, 1.5 μM peptide substrate; value ranges. As to the method:
The effectiveness of compounds of the present invention as ROCK inhibitors can be determined in a 30 μL assay containing 20 mM HEPES, pH 7.5, 20 mM MgCl2, 0.015% Brij-35, 4 mM DTT, 5 μM ATP and 1.5 μM peptide substrate (FITC-AHA-AKRRRLSSLRA-OH). Compounds were dissolved in DMSO so that the final concentration of DMSO was <2%, and the reaction was initiated with Rho kinase variants. After incubation, the reaction was terminated by the addition of EDTA and the phosphorylated and non-phosphorylated peptides separated using a LABCHIP® 3000 Reader (Caliper Life Sciences). […] Compounds were tested in dose-response format, and the inhibition of kinase activity was calculated at each concentration of compound. The inhibition data were fit using a curve-fitting program to determine the IC50; i.e., the concentration of compound required to inhibit 50% of kinase activity.
Representative Examples were tested in the ROCK2 assay described above and found having ROCK inhibitory activity.
For the compound `COc1cccc(CN2CCN(c3ccc(-c4cn[nH]c4)c(F)c3)C2=O)c1` [Example 430, 1-(3-fluoro-4-(1H-pyrazol-4-yl)phenyl)-3-(3-methoxybenzyl)imidazolidin-2-one], the IC50 fell in the range of 2.1 to 20 nM.
Compound `COc1nc(N2CCN(Cc3ccc(F)c(OCC4CC4)c3)C2=O)ccc1-c1cn[nH]c1` [Example 218, 1-(3-(cyclopropylmethoxy)-4-fluorobenzyl)-3-(6-methoxy-5-(1H-pyrazol-4-yl)pyridin-2-yl)imidazolidin-2-one] showed an IC50 of 2.1 to 20 nM.
Regarding `O=C1CN(Cc2cccc(F)c2)C(=O)N1c1ccc(-c2cn[nH]c2)cc1` [Example 81, 3-(4-(1H-pyrazol-4-yl)phenyl)-1-(3-fluorobenzyl)imidazolidine-2,4-dione], the IC50 fell in the range of 200 to 2000 nM.
`COc1cccc(C(C)n2ccn(-c3ccc(-c4cn[nH]c4)c(OC)n3)c2=O)c1` (single isomer, unassigned) [Example 400, 1-(6-methoxy-5-(1H-pyrazol-4-yl)pyridin-2-yl)-3-(1-(3-methoxyphenyl)ethyl)-1H-imidazol-2(3H)-one] came in with an IC50 of less than 2 nM.
In turn, `CCc1cc(N2CCN(Cc3cc(F)cc(OC)c3)C2=O)ccc1-c1cn[nH]c1` [Example 280, 1-(3-ethyl-4-(1H-pyrazol-4-yl)phenyl)-3-(3-fluoro-5-methoxybenzyl)imidazolidin-2-one] showed an IC50 of 2.1 to 20 nM.
`COc1ccc(F)c(CN2CCN(c3ccc(-c4cn[nH]c4)c(OC)c3)C2=O)c1` [Example 15, 1-(2-Fluoro-5-methoxybenzyl)-3-(3-methoxy-4-(1H-pyrazol-4-yl)phenyl)imidazolidin-2-one] gave an IC50 of 20.1 to 200 nM.
As to `COc1cc(Cn2ccn(-c3ccc(-c4cn[nH]c4)cc3)c2=O)ccc1F` [Example 407, 1-(4-(1H-pyrazol-4-yl)phenyl)-3-(4-fluoro-3-methoxybenzyl)-1H-imidazol-2(3H)-one], the IC50 was in the range of 20.1 to 200 nM.
Compound `COc1nc(N2CCN(Cc3cc(F)cc(OCC4CC4)c3)C2=O)ccc1-c1cn[nH]c1` [Example 224, 1-(3-(cyclopropylmethoxy)-5-fluorobenzyl)-3-(6-methoxy-5-(1H-pyrazol-4-yl)pyridin-2-yl)imidazolidin-2-one] yielded an IC50 of 2.1 to 20 nM.
For `COc1cc(F)cc(CN2CC(=O)N(c3ccc(-c4cn[nH]c4)cc3)C2=O)c1` [Example 84, 3-(4-(1H-pyrazol-4-yl)phenyl)-1-(3-fluoro-5-methoxybenzyl)imidazolidine-2,4-dione], the IC50 lay in the range of 20.1 to 200 nM.
Turning to `COc1cccc(CN2CCN(c3ccc(-c4ccnc(N)c4)cc3)C2=O)c1` [Example 62, 1-(4-(2-Aminopyridin-4-yl)phenyl)-3-(3-methoxybenzyl)imidazolidin-2-one, TFA], the IC50 is 20.1 to 200 nM.
On to `CC(c1ccccc1)n1ccn(-c2ccc(-c3cn[nH]c3)cc2)c1=O` (stereo not drawn) [Example 331, 1-(4-(1H-pyrazol-4-yl)phenyl)-3-(1-phenylethyl)-1H-imidazol-2(3H)-one], for which the IC50 was in the range of 2.1 to 20 nM.
In turn, `COc1cccc(CN2CCN(c3ccc(-c4cn[nH]c4)c(C)n3)C2=O)c1` [Example 179, 1-(3-methoxy-benzyl)-3-(6-methyl-5-(1H-pyrazol-4-yl)pyridin-2-yl)-imidazolidin-2-one] gave a half-maximal inhibitory concentration (IC50) of 2.1 to 20 nM.
With `O=C1N(Cc2ccccc2)CCN1c1ccc(-c2cn[nH]c2)cc1` [Example 3, 1-(4-(1H-pyrazol-4-yl)phenyl)-3-benzylimidazolidin-2-one], the IC50 lay within 2.1 to 20 nM.
`COc1cc(F)cc(C(C)n2ccn(-c3ccc(-c4cn[nH]c4)cc3)c2=O)c1` (single isomer, unassigned) [Example 366, 1-(4-(1H-pyrazol-4-yl)phenyl)-3-(1-(3-fluoro-5-methoxyphenyl)ethyl)-1H-imidazol-2(3H)-one] registered an IC50 of less than 2 nM.
`COc1nc(-n2ccn(Cc3ccc(F)c(OCC4CC4)c3)c2=O)ccc1-c1cn[nH]c1` [Example 377, 1-(3-(cyclopropylmethoxy)-4-fluorobenzyl)-3-(6-methoxy-5-(1H-pyrazol-4-yl)pyridin-2-yl)-1H-imidazol-2(3H)-one] showed an IC50 of 2.1 to 20 nM.
